From paper PMC12345137 (mBio, 2025)
Entries after “also recorded” stand apart in the source; their conditions may differ. Where two headings read alike, the source gives them in different places. Positions of bridges follow the written chain, without caps; N, C: chain ends. Residues, ends and D or L forms follow the SMILES beside them.

Tests used:
S. lugdunensis agr-I = S. lugdunensis agr-I (Staphylococcus lugdunensis, UniProt Q8VSW5); test: cell-based; details: for QS interaction in words (inhibition / activation), S. lugdunensis agr-I: fluorescent reporter strain, peptides tested at 1000, 50, 2.5, 0.125 nM or in dose-response
In short: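 37°C, 1,000 rpm, 22–24 h in TSB + CAM or ERM (10 μg/mL); 1:5 serial peptide dilutions from 1 mM DMSO stocks; fluorescence (GFP ex 479/em 520, YFP ex 500/em 541) minus blank, ÷OD600, % of untreated control; IC50 by variable-slope fit.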

S. epidermidis agr-I = S. epidermidis agr-I (Staphylococcus epidermidis, UniProt Q5HMY3); test: cell-based; type: cell-based; details: for QS interaction in words (inhibition / activation), S. epidermidis agr-I: fluorescent reporter strain, peptides tested at 1000, 50, 2.5, 0.125 nM or in dose-response
Experimental: Peptides were evaluated for the ability to interfere with agr-mediated quorum sensing in S. aureus (AH1677, AH430, AH1747, and AH1872 for agr-I–IV, respectively) ([40]) using reporter strains expressing yellow fluorescent protein (YFP) upon agr activation. Interference with agr-mediated quorum sensing in S. epidermidis (AH3408, AH3623, and AH3409 for agr-I–III, respectively) ([45]), and S. lugdunensis (AH4031 for agr-I) ([37]) was evaluated using reporter strains expressing superfolder green fluorescent protein (sGFP) upon agr activation. Overnight cultures of the reporter strains were grown in TSB medium containing chloramphenicol (CAM, 10 μg/mL for S. aureus) or erythromycin (ERM, 10 μg/mL of S. epidermidis and S. lugdunensis) and diluted 1:100 in fresh TSB medium containing the same antibiotic. Assays were performed in sterile black 96-well plates with a clear bottom. […] DMSO stock solutions of peptides (1 mM) were diluted in TSB media and added (15 μL) in technical triplicate to the 96-well plate, followed by diluted bacterial overnight cultures (135 μL). […] Wells containing 150 μL TSB medium were used to measure background fluorescence. The 96-well plates were incubated in a humidified incubator at 37°C shaking at 1,000 rpm for 22–24 h and fluorescence (for GFP: excitation 479 nm, emission 520 nm; for YFP: excitation 500 nm, emission 541 nm; automatic gain), and OD600 values were subsequently measured using a plate reader. Background fluorescence was subtracted from all wells and further normalized to the corresponding OD600 value of the respective wells. The average fluorescence of control wells was used as a relative measure for 100% activation of the agr-circuit, and bar graphs were generated using GraphPad Prism 10.4 software. All assays were performed in at least a biological duplicate.
Overnight cultures of the reporter strains were grown in TSB medium containing chloramphenicol (CAM, 10 μg/mL for S. aureus) or erythromycin (ERM, 10 μg/mL of S. epidermidis and S. lugdunensis) and diluted 1:100 in fresh TSB medium containing the same antibiotic. Assays were performed in sterile black 96-well plates with clear bottoms. Peptide solutions (15 μL) in 1:5 serial dilutions from DMSO stock solutions (1 mM) in TSB medium were added to the 96-well plate in technical duplicate followed by diluted bacterial overnight cultures (135 μL). […] Wells containing 150 μL TSB medium were used to measure background fluorescence. The 96-well plates were incubated in a humidified incubator at 37°C shaking at 1,000 rpm for 22–24 h and fluorescence (for GFP: excitation 479 nm, emission 520 nm; for YFP: excitation 500 nm, emission 541 nm; automatic gain), and OD600 values were subsequently measured using a plate reader. Background fluorescence was subtracted from all wells and further normalized to the corresponding OD600 value of the respective wells. The average fluorescence of control wells was used as a relative measure for 100% activation of the agr-circuit. Relative agr activity was plotted to obtain IC50 values by non-linear regression with variable slope using GraphPad Prism 10.4 software. All assays were performed in biological triplicate.

S. aureus (SA) agr-I = details: fluorescence, cited from earlier work
S. aureus (SA) agr-III = details: fluorescence, cited from earlier work
SA AgrC-III = SA AgrC-III (Staphylococcus aureus, UniProt O33590); details: 100 nM cognate AIP, ± SEM, determined previously, ref (1), cited from earlier work
Sequence of SA AgrC-III (O33590 entry or part of it): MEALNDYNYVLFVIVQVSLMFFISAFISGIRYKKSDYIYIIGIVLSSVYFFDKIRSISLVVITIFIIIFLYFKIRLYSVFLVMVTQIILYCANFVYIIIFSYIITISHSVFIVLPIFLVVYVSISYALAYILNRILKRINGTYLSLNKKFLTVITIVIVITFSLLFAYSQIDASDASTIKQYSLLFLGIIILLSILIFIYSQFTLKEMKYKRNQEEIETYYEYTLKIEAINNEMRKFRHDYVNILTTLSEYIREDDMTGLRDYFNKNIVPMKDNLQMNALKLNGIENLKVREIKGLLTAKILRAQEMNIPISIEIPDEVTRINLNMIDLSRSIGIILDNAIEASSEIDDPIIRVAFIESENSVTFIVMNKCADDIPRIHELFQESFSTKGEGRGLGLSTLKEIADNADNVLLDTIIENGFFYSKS

Sequence of S. lugdunensis agr-I (Q8VSW5 entry or part of it): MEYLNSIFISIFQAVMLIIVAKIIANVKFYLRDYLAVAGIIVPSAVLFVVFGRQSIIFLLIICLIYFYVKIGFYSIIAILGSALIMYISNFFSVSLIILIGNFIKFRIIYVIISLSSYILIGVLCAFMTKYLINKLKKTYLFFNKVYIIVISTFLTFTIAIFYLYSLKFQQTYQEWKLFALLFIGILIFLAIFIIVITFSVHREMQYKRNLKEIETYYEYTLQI
Sequence of S. epidermidis agr-I (Q5HMY3 entry or part of it): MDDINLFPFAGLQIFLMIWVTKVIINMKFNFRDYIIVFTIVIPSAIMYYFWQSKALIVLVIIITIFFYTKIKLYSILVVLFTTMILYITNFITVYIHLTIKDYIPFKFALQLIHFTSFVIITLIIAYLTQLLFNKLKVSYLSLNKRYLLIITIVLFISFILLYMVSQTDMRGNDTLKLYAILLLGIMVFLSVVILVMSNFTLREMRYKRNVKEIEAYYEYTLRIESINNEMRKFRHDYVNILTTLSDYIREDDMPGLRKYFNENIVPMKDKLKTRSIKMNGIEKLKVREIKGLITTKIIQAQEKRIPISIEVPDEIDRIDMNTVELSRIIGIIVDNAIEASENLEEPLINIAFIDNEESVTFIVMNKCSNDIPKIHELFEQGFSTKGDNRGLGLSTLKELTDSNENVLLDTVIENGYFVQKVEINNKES

NCCCC[C@H](N)C(=O)N[C@@H](Cc1ccc(O)cc1)C(=O)N[C@@H](Cc1ccc(O)cc1)C(=O)N1CCC[C@H]1C(=O)N[C@H]1CSC(=O)[C@H](Cc2ccccc2)NC(=O)[C@H](Cc2ccc(O)cc2)NC(=O)CNC(=O)[C@H](Cc2c[nH]c3ccccc23)NC1=O [compound 33, S. simulans AIP-II] (H-KYYPCWGYF; thioester 5-C)
IC50 (S. lugdunensis agr-I): 1.2 ± 0.2 nM | QS interaction in words (inhibition / activation), S. lugdunensis agr-I (S. lugdunensis agr-I): inhibited; also recorded: sub- or low-nanomolar potencies | IC50 (S. epidermidis agr-I): 0.31 ± 0.06 nM | QS interaction in words (inhibition / activation), S. epidermidis agr-I (S. epidermidis agr-I): inhibited | IC50 (S. aureus (SA) agr-I; ref (17)): 1.6 nM | IC50 (S. aureus (SA) agr-III; ref (17)): 11.5 nM

S. aureus AIP-III D4A [compound 57, reference compound]
QS interaction in words (inhibition / activation), S. lugdunensis agr-I (S. lugdunensis agr-I): weak interference | QS interaction in words (inhibition / activation), S. epidermidis agr-I (S. epidermidis agr-I): weak interference | IC50 (SA AgrC-III; only partial inhibition observed, read-out: IC50, SA AgrC-III, b-lactamase assay, only partial inhibition observed (footnote a)): 1.6 ± 0.2 nM | IC50 (S. aureus (SA) agr-I; ref (5)): 0.49 nM | IC50 (S. aureus (SA) agr-III; ref (5)): 0.051 nM

NCCCC[C@H](N)C(=O)N[C@@H](Cc1ccc(O)cc1)C(=O)N[C@@H](CC(N)=O)C(=O)N1CCC[C@H]1C(=O)N[C@H]1CSC(=O)[C@H](Cc2ccccc2)NC(=O)[C@H](Cc2ccc(O)cc2)NC(=O)CNC(=O)[C@H](Cc2c[nH]c3ccccc23)NC1=O [compound 34, S. simulans AIP-III] (H-KYNPCWGYF; thioester 5-C)
IC50 (S. lugdunensis agr-I): 0.48 nM | IC50 fold lower compared with the most potent, previously reported inhibitors of S. lugdunensis (S. lugdunensis agr-I; S. lugdunensis agr-I, comparison with [37]): 400 fold | QS interaction in words (inhibition / activation), S. lugdunensis agr-I (S. lugdunensis agr-I): sub- or low-nanomolar potencies | IC50 (S. epidermidis agr-I): 0.14 ± 0.03 nM | IC50 (S. aureus (SA) agr-I; ref (17)): 1.7 nM | IC50 (S. aureus (SA) agr-III; ref (17)): 3.2 nM

CC(C)C[C@@H]1NC(=O)[C@@H](NC(=O)[C@@H]2CCCN2C(=O)[C@H](CC(N)=O)NC(=O)[C@H](Cc2ccc(O)cc2)NC(=O)[C@@H](N)CCCCN)CSC(=O)[C@H](CC(C)C)NC(=O)[C@H](Cc2ccccc2)NC(=O)CNC1=O [compound 32, S. simulans AIP-I] (H-KYNPCLGFL; thioester 5-C; N-terminus assumed)
IC50 (S. lugdunensis agr-I): 113 ± 11 nM | IC50 (S. epidermidis agr-I): 0.74 ± 0.01 nM | IC50 (SA AgrC-III; read-out: IC50, SA AgrC-III, b-lactamase assay, -b = no inhibition recorded at the highest AIP concentration tested): 50 ± 11 nM | IC50 (S. aureus (SA) agr-I; ref (17)): 2.2 nM | IC50 (S. aureus (SA) agr-III; ref (17)): 3.5 nM

CC[C@H](C)[C@@H]1NC(=O)[C@H](Cc2ccccc2)NC(=O)[C@H](CC(=O)O)NC(=O)[C@@H](NC(=O)[C@@H](NC(=O)[C@H](CO)NC(=O)[C@@H](N)Cc2ccc(O)cc2)[C@@H](C)O)CSC(=O)[C@H](CCSC)NC1=O [compound 1, S. aureus AIP-I] (H-YSTCDFIM; thioester 4-C)
IC50 (S. lugdunensis agr-I): > 1000 nM | IC50 (S. epidermidis agr-I): > 1000 nM | IC50 (SA AgrC-III; -b = no inhibition recorded at the highest AIP concentration tested, read-out: IC50, SA AgrC-III, b-lactamase assay): 80 ± 11 nM | IC50 (S. aureus (SA) agr-III; ref (5)): 0.53 nM
